From patent publication US11229707B2, “Promoting immune responses” (National Institute of Biological Sciences, Beijing, priority 2018, dated 2022) come the findings set out here.

Read-outs that look alike come from different tables or passages of the source.

One data set has as its target alpha-kinase 1 (ALPK1) (Homo sapiens, UniProt Q96QP1). The data set is described as follows: ALPK1 activation (kinase domain phosphorylation of TIFA). It counts as biochemical.
Data set [1] relates to innate immune responses in mice. The data set is described as follows: Mouse dorsal air pouch model of acute inflammation (neutrophil recruitment, multiplex immunoassay for 36 cytokines). It counts as in vivo. The conditions noted are these: for proinflammatory cytokines and chemokines in air pouches (IL-6, TNFα, IP-10, MCP-1/3, IFNγ, GM-CSF, MIP-1α and β, RANTES): air-pouch washes, compared with saline control; for neutrophil recruitment into the air pouch: injection into air pouch; for level of GRO-α/KC/CXCL1, IP-10 and MCP-1 in the sera: sera of injected mice. An excerpt:
To investigate whether ADP-Hep alone could stimulate innate immune responses in vivo, a mouse dorsal air pouch model established to assess acute inflammation was employed (Gaudet et al. Science 348, 1251-1255 (2015).
We then performed a multiplex immunoassay for 36 cytokines in both the air-pouch washes and the sera of injected mice. […] Thus, ADP-Hep but not HBP alone can potently activate innate immune responses in mice.
To confirm that 1-ADP-heptoses and 1-ADP-heptose-7-phosphates can stimulate innate immune responses in vivo, a mouse dorsal air pouch model established to assess acute inflammation was employed (Gaudet, et al. Science 348, 1251-1255 (2015).
Injection of 1-ADP-heptoses and 1-ADP-heptose-7-phosphates into the air pouch induces neutrophil recruitment into the pouch. […] 1-ADP-heptoses and 1-ADP-heptose-7-phosphates also increase the level of keratinocyte-derived chemokine (GRO-a/KC/CXCL1), IP-10 and MCP-1 in the sera.

For a further data set, the system named is NF-κB in 293T cells. The data set is described as follows: NF-κB activation in 293T cells, luciferase reporter activity. The data set is classed as cell-based. A general note: A reporter such as luciferase makes a cellular process visible.
Another data set concerns TIFA. The experiment in a line: TIFA phosphorylation in 293T cells stably expressing EGFP-TIFA, anti-pT9-TIFA immunoblot. The data set is classed as cell-based. The settings on record: 5 μM for 5 hours. On the procedure: FIG. 1B. […] 293T cells stably expressing EGFP-TIFA were treated with ADP-heptose analogs (5 μM) for 5 hours, and analyzed by anti-pT9-TIFA immunoblot.
For orientation: A western blot detects proteins with antibodies after separation by electrophoresis.

Data set [2] relates to ovalbumin (OVA)-specific IgG. The experiment in a line: Adjuvant activity in vivo: OVA immunization, serum OVA-specific IgG by ELISA. The settings on record: C57BL/6N mice, intramuscular, 10 μg OVA mixed with 0.5 mg/mouse; after 21 days. As to the method: FIG. 1C. […] C57BL/6N mice (8 mice per group) were immunized intramuscularly with 10 μg OVA mixed with PBS, alum (2 mg/mouse), or ADP-heptose (0.5 mg/mouse). After 21 days, serum titers of OVA-specific IgG were measured by ELISA.
For orientation: An ELISA detects its analyte on a solid surface through an enzyme-linked reagent.

For the next data set, the system named is B16-OVA melanoma cells. The data set is described as follows: B16-OVA tumor growth, posttumor intratumor treatment. The data set is classed as in vivo, C57BL/6N mice. The conditions noted are these: 0.5 mg/mouse intratumor injection on day 8, 11, 14, 17. As to the method:
FIG. 1D and FIG. 1E. […] C57BL/6N mice (n=6 mice per group) were injected subcutaneously with 2×10^5 B16-OVA melanoma cells on day 0. ADP-heptose (0.5 mg/mouse) was administered on day 8, 11, 14, and 17 after tumor inoculation by intratumor injection. Tumor volume (D) and tumor weight (E).

Data set [3] relates to MC38 colorectal adenocarcinoma cells. The data set is described as follows: MC38 tumor growth, posttumor treatment with checkpoint blockade. The data set is classed as in vivo, C57BL/6N mice. The settings on record: 0.5 mg/mouse intratumor combined with anti-PD-1 antibody 40 ug/mouse intraperitoneal, day 13-28. On the procedure:
FIG. 1F. […] C57BL/6N mice (n=6 mice per group) were injected subcutaneously with 2×10^5 MC38 colorectal adenocarcinoma cells on day 0. ADP-heptose (0.5 mg/mouse, intratumor injection) and anti-PD-1 antibody (40 ug/mouse, intraperitoneal injection) was administered on day 13, 16, 19, 22, 25, and 28 after tumor inoculation.

Data set [4] deals with ALPK1 N-terminal domain (NTD) (Homo sapiens, UniProt Q96QP1). The experiment in a line: Direct binding to ALPK1 N-terminal domain.
Data set [5] deals with THP-1 and 293T cells. The data set is described as follows: Host cytosol entry, NF-kB activation and cytokine induction in THP-1 and 293T cells. The conditions noted are these: for cytokines induction (such as interleukin-8): THP-1 and 293T cells, compound added on its own.
The subject of data set [6] is THP-1 and 293T cells.

Chain of alpha-kinase 1 (ALPK1) (Q96QP1 whole entry, the tested form may be a part): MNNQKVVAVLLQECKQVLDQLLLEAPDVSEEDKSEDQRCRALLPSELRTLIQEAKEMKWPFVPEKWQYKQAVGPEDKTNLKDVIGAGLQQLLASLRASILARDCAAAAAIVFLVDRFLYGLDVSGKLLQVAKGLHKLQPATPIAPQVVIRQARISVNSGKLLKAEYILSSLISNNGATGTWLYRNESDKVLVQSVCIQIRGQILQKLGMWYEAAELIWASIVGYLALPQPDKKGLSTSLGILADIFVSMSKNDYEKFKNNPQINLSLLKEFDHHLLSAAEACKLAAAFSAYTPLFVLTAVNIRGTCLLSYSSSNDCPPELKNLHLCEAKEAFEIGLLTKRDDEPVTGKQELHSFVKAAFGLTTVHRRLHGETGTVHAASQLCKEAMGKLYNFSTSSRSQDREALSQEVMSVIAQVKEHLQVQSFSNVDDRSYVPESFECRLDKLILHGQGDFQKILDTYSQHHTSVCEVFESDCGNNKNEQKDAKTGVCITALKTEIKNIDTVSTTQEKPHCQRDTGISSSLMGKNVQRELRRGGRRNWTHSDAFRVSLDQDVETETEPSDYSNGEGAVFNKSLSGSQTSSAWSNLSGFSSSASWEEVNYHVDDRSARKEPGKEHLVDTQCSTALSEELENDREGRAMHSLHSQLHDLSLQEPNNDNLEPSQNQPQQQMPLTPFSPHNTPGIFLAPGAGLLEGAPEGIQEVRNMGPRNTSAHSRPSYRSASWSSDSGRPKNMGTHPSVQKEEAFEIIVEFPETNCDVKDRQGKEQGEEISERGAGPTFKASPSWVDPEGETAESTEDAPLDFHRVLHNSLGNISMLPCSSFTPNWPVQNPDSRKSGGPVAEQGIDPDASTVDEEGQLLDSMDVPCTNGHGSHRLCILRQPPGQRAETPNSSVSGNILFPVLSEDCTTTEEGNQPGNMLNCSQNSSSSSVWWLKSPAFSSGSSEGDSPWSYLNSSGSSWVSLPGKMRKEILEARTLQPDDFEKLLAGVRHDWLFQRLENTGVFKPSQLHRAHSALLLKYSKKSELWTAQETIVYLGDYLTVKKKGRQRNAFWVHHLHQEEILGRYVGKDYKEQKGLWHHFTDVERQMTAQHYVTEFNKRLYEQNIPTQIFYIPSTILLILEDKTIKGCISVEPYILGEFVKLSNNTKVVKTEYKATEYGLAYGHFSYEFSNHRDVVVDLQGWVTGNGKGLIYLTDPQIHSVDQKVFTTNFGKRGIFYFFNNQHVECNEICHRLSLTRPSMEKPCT
Chain of ALPK1 N-terminal domain (NTD) (Q96QP1 1-473 limits assumed): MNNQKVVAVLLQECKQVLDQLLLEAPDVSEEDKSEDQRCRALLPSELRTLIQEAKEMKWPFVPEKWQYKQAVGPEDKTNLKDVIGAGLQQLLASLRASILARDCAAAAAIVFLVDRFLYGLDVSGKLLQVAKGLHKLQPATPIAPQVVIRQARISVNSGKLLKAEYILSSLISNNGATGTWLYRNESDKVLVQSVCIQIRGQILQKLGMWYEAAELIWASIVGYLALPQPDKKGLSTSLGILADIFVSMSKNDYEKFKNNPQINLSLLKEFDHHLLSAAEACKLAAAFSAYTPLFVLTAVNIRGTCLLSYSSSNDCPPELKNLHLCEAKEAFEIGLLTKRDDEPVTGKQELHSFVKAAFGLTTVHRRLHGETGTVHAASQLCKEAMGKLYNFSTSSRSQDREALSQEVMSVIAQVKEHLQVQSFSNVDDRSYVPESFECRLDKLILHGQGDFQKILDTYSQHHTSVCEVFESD

For the molecule `Nc1ncnc2c1ncn2C1OC(COP(=O)(O)OP(=O)(O)OC2OC(C(O)COP(=O)(O)O)C(O)C(O)C2O)C(O)C1O` (stereo not shown) [ADP-Heptose 7-P], the ALPK1 activation result on alpha-kinase 1 (ALPK1) is listed as “ALPK1 activation-competent”.
For the molecule `Nc1ncnc2c1ncn2[C@@H]1O[C@H](COP(=O)(O)OP(=O)(O)O[C@@H]2O[C@H]([C@@H](O)CO)[C@@H](O)[C@H](O)[C@@H]2O)[C@@H](O)[C@H]1O` [ADP-LD-Hep], in [1], the “proinflammatory cytokines and chemokines in air pouches (IL-6, TNFα, IP-10, MCP-1/3, IFNγ, GM-CSF, MIP-1α and β, RANTES)” value was “highly elevated”; the “neutrophil recruitment into the air pouch” value is “induced massive neutrophil recruitment into the pouch”; the “level of GRO-α/KC/CXCL1, IP-10 and MCP-1 in the sera” value is on record as “increased the level”.
In the case of `Nc1ncnc2c1ncn2[C@@H]1O[C@H](COP(=O)(O)OP(=O)(O)O[C@@H]2O[C@H]([C@H](O)CO)[C@@H](O)[C@H](O)[C@@H]2O)[C@@H](O)[C@H]1O` [ADP-heptose, 1-ADP-β-D-manno-Heptose], in the data set on NF-κB in 293T cells, the “NF-κB activation (luciferase reporter activity)” value is listed as “activated NF-κB in 293T cells in a dose-dependent manner”. In the data set with TIFA, the “TIFA phosphorylation (anti-pT9-TIFA immunoblot)” value (“TIFA phosphorylation” for short) is given as “induced TIFA phosphorylation”. In addition, the “serum ovalbumin (OVA)-specific IgG production (adjuvant activity)” value in data set [2] is listed as “exhibited adjuvant activity in vivo to elevate the serum ovalbumin (OVA)-specific IgG production”. Besides, in the data set on B16-OVA melanoma cells, the “B16-OVA tumor growth (tumor volume, tumor weight)” value was “Inhibition of B16-OVA tumor growth”. In data set [3], the MC38 tumor growth entry is listed as “Inhibition of MC38 tumor growth”. Also, the “inflammatory responses in mice after injection” value in [1] (mice, Alpk1-dependent) was “induces robust inflammatory responses in mice”. Moreover, the “direct binding to ALPK1 N-terminal domain” value in [4] is “directly binds”. In addition, the ALPK1 activation entry on alpha-kinase 1 (ALPK1) was “stimulates the NTD-bound C-terminal kinase domain to phosphorylate TIFA and induce its oligomerization”. The “cytokines induction (such as interleukin-8)” value in the data set on THP-1 and 293T cells [5] is “cytokines induction”. Also, in the data set on THP-1 and 293T cells [5] (host cells), the “entry into host cytosol on its own” value is recorded as “could enter host cytosol on its own”.
In the case of `Nc1ccn(C2OC(COP(=O)(O)OP(=O)(O)OC3OC(C(O)CO)C(O)C(O)C3O)C(O)C2O)c(=O)n1` (stereo not shown) [CDP-heptose], the “NF-κB activation (luciferase reporter activity)” value in the data set with NF-κB in 293T cells is “activated NF-κB in 293T cells in a dose-dependent manner”. Besides, in the data set on TIFA, the “TIFA phosphorylation” value is “induce TIFA phosphorylation”.
In the case of `Nc1nc2c(ncn2[C@@H]2O[C@H](COP(=O)(O)OP(=O)(O)O[C@H]3O[C@H]([C@H](O)CO)[C@@H](O)[C@H](O)[C@@H]3O)[C@@H](O)[C@H]2O)c(=O)[nH]1` [GDP-heptose], the “NF-κB activation (luciferase reporter activity)” value in the data set on NF-κB in 293T cells was “activated NF-κB in 293T cells in a dose-dependent manner”. The “TIFA phosphorylation” value in the data set on TIFA is listed as “induce TIFA phosphorylation”.
As for `O=P(O)(O)OC[C@@H](O)[C@H]1O[C@@H](OP(=O)(O)O)[C@@H](O)[C@@H](O)[C@@H]1O` [HBP, D-glycero-β-D-manno Heptose 1,7-bisphosphate, reference compound], in data set [1], the “proinflammatory cytokines and chemokines in air pouches (IL-6, TNFα, IP-10, MCP-1/3, IFNγ, GM-CSF, MIP-1α and β, RANTES)” value is “did not affect local and systemic productions”; the “neutrophil recruitment into the air pouch” value is on record as “failed to increase the number of air-pouch neutrophils”; the “level of GRO-α/KC/CXCL1, IP-10 and MCP-1 in the sera” value is “did not affect local and systemic productions”. In addition, in the data set on THP-1 and 293T cells [6], the “entry into host cytosol on its own” value is recorded as “cell-impermeable”. The “cytokines induction (such as interleukin-8)” value in the data set on THP-1 and 293T cells [5] was “not”. For the same molecule, the NF-κB activation entry in the data set on THP-1 and 293T cells [5] (transfected into host cells) is on record as “NF-κB activation observed”.
Take `O=c1ccn(C2OC(COP(=O)(O)OP(=O)(O)OC3OC(C(O)CO)C(O)C(O)C3O)C(O)C2O)c(=O)[nH]1` (stereo not shown) [UDP-heptose]: in the data set with NF-κB in 293T cells, the “NF-κB activation (luciferase reporter activity)” value is listed as “activated NF-κB in 293T cells in a dose-dependent manner”. The “TIFA phosphorylation” value in the data set with TIFA is “induce TIFA phosphorylation”.
The matching figures for `Nc1ncnc2c1ncn2C1CC(O)C(COP(=O)(O)OP(=O)(O)OC2OC(C(O)CO)C(O)C(O)C2O)O1` (stereo not shown) [dADP-heptose]: “activated NF-κB in 293T cells in a dose-dependent manner” and “induce TIFA phosphorylation”.
The matching figures for `Nc1ccn(C2CC(O)C(COP(=O)(O)OP(=O)(O)OC3OC(C(O)CO)C(O)C(O)C3O)O2)c(=O)n1` (stereo not shown) [dCDP-heptose]: “activated NF-κB in 293T cells in a dose-dependent manner” and “induce TIFA phosphorylation”.
Regarding `Nc1nc2c(ncn2C2CC(O)C(COP(=O)(O)OP(=O)(O)OC3OC(C(O)CO)C(O)C(O)C3O)O2)c(=O)[nH]1` (stereo not shown) [dGDP-heptose], in the data set on NF-κB in 293T cells, the “NF-κB activation (luciferase reporter activity)” value was “activated NF-κB in 293T cells in a dose-dependent manner”. For the same molecule, the “TIFA phosphorylation” value with TIFA is “induce TIFA phosphorylation”.
For `Cc1cn(C2CC(O)C(COP(=O)(O)OP(=O)(O)OC3OC(C(O)CO)C(O)C(O)C3O)O2)c(=O)[nH]c1=O` (stereo not shown) [dTDP-heptose] the same measures were “activated NF-κB in 293T cells in a dose-dependent manner” and “induce TIFA phosphorylation”.
